Measured values from ChEMBL document CHEMBL5055633, “Amphipathic Barbiturates as Mimics of Antimicrobial Peptides and the Marine Natural Products Eusynstyelamides with Activity against Multi-resistant Clinical Isolates” (J Med Chem, 2021).

How the values were obtained:
HepG2 = assay: Cytotoxicity against human HepG2 cells assessed as reduction in cell viability incubated for 24 hrs by colorimetric tetrazolium assay; format: functional, cell-based; settings: HepG2, 24 h
[1] = Hemolytic activity in human erythrocytes incubated for 1 hr by microplate reader; format: functional, cell-based; settings: erythrocyte
Pseudomonas aeruginosa [2] = assay: Antimicrobial activity against Pseudomonas aeruginosa PAO1 assessed as reduction in bacterial growth incubated for 48 hrs by microdilution susceptibility test; format: functional
Escherichia coli [3] = assay: Antimicrobial activity against Escherichia coli ATCC 25922 assessed as reduction in bacterial growth incubated for 48 hrs by microdilution susceptibility test; format: functional
[4] = system: Corynebacterium glutamicum; assay: Antimicrobial activity against Corynebacterium glutamicum ATCC 13032 assessed as reduction in bacterial growth incubated for 48 hrs by microdilution susceptibility test; format: functional
Staphylococcus aureus [5] = assay: Antimicrobial activity against Staphylococcus aureus ATCC 9144 assessed as reduction in bacterial growth incubated for 48 hrs by microdilution susceptibility test; format: functional
MRC5 = assay: Cytotoxicity against human MRC5 cells assessed as reduction in cell viability incubated for 24 hrs by colorimetric tetrazolium assay; format: functional, cell-based; settings: MRC5, 24 h
Staphylococcus aureus [6] = assay: Antimicrobial activity against extended spectrum-lactamase-carbapenemas producing Staphylococcus aureus N315 assessed as reduction in bacterial growth incubated for 48 hrs by microdilution method; format: functional
Staphylococcus aureus [7] = assay: Antimicrobial activity against extended spectrum-lactamase-carbapenemas producing Staphylococcus aureus NCTC 10442 assessed as reduction in bacterial growth incubated for 48 hrs by microdilution method; format: functional
Staphylococcus aureus [8] = assay: Antimicrobial activity against extended spectrum-lactamase-carbapenemas producing Staphylococcus aureus strain 85/2082 assessed as reduction in bacterial growth incubated for 48 hrs by microdilution method; format: functional
Staphylococcus aureus [9] = assay: Antimicrobial activity against extended spectrum-lactamase-carbapenemas producing Staphylococcus aureus strain WIS assessed as reduction in bacterial growth incubated for 48 hrs by microdilution method; format: functional
Staphylococcus aureus [10] = assay: Antimicrobial activity against extended spectrum-lactamase-carbapenemas producing Staphylococcus aureus strain IHT 99040 assessed as reduction in bacterial growth incubated for 48 hrs by microdilution method; format: functional
Enterococcus faecium [11] = assay: Antimicrobial activity against extended spectrum-lactamase-carbapenemas producing Enterococcus faecium strain 50673722 assessed as reduction in bacterial growth incubated for 48 hrs by microdilution method; format: functional
Enterococcus faecium [12] = assay: Antimicrobial activity against extended spectrum-lactamase-carbapenemas producing Enterococcus faecium strain 50901530 assessed as reduction in bacterial growth incubated for 48 hrs by microdilution method; format: functional
Enterococcus faecium [13] = assay: Antimicrobial activity against extended spectrum-lactamase-carbapenemas producing Enterococcus faecium strain K36-18 assessed as reduction in bacterial growth incubated for 48 hrs by microdilution method; format: functional
Enterococcus faecium [14] = assay: Antimicrobial activity against extended spectrum-lactamase-carbapenemas producing Enterococcus faecium strain 50758899 assessed as reduction in bacterial growth incubated for 48 hrs by microdilution method; format: functional
Enterococcus faecium [15] = assay: Antimicrobial activity against extended spectrum-lactamase-carbapenemas producing Enterococcus faecium strain TUH.50-22 assessed as reduction in bacterial growth incubated for 48 hrs by microdilution method; format: functional
Escherichia coli [16] = assay: Antimicrobial activity against oxacillinase-producing Escherichia coli 50579417 assessed as reduction in bacterial growth incubated for 48 hrs by microdilution method; format: functional
Escherichia coli [17] = assay: Antimicrobial activity against verona integron-encoded metallo-beta-lactamase-29-producing Escherichia coli 50639799 assessed as reduction in bacterial growth incubated for 48 hrs by microdilution method; format: functional
Escherichia coli [18] = assay: Antimicrobial activity against New Delhi metallo-beta lactamase-1 producing Escherichia coli 50676002 assessed as reduction in bacterial growth incubated for 48 hrs by microdilution method; format: functional
Escherichia coli [19] = assay: Antimicrobial activity against New Delhi metallo-beta lactamase-1 producing Escherichia coli 50739822 assessed as reduction in bacterial growth incubated for 48 hrs by microdilution method; format: functional
Escherichia coli [20] = assay: Antimicrobial activity against imipenem-type carbapenemase-26 producing Escherichia coli 50857972 assessed as reduction in bacterial growth incubated for 48 hrs by microdilution method; format: functional
Pseudomonas aeruginosa [21] = assay: Antimicrobial activity against verona integron-encoded metallo-beta-lactamase-2 producing Pseudomonas aeruginosa K34-7 assessed as reduction in bacterial growth incubated for 48 hrs by microdilution method; format: functional
Pseudomonas aeruginosa [22] = assay: Antimicrobial activity against verona integron-encoded metallo-beta-lactamase-4 producing Pseudomonas aeruginosa K34-73 assessed as reduction in bacterial growth incubated for 48 hrs by microdilution method; format: functional
Pseudomonas aeruginosa [23] = assay: Antimicrobial activity against imipenem-type carbapenemase-14 producing Pseudomonas aeruginosa K44-24 assessed as reduction in bacterial growth incubated for 48 hrs by microdilution method; format: functional
Pseudomonas aeruginosa [24] = assay: Antimicrobial activity against New Delhi metallo-beta lactamase-1 producing Pseudomonas aeruginosa 50692172 assessed as reduction in bacterial growth incubated for 48 hrs by microdilution method; format: functional
Pseudomonas aeruginosa [25] = assay: Antimicrobial activity against verona integron-encoded metallo-beta-lactamase producing Pseudomonas aeruginosa 50692520 assessed as reduction in bacterial growth incubated for 48 hrs by microdilution method; format: functional
[26] = Antimicrobial activity against carbapenemase producing Klebsiella pneumoniae K47-25 assessed as reduction in bacterial growth incubated for 48 hrs by microdilution method; format: functional
[27] = Antimicrobial activity against New Delhi metallo-beta lactamase-1 Klebsiella pneumoniae K66-45 assessed as reduction in bacterial growth incubated for 48 hrs by microdilution method; format: functional
[28] = Antimicrobial activity against New Delhi metallo-beta lactamase-1 and oxacillinase -181 producing Klebsiella pneumoniae 50531633 assessed as reduction in bacterial growth incubated for 48 hrs by microdilution method; format: functional
[29] = Antimicrobial activity against oxacillinase-245 producing Klebsiella pneumoniae 50625602 assessed as reduction in bacterial growth incubated for 48 hrs by microdilution method; format: functional
[30] = Antimicrobial activity against verona integron-encoded metallo-beta-lactamase -1 producing Klebsiella pneumoniae 50667959 assessed as reduction in bacterial growth incubated for 48 hrs by microdilution method; format: functional
Acinetobacter baumannii [31] = assay: Antimicrobial activity against oxacillinase-58 producing Acinetobacter baumannii K12-21 assessed as reduction in bacterial growth incubated for 48 hrs by microdilution method; format: functional
Acinetobacter baumannii [32] = assay: Antimicrobial activity against oxacillinase-23 producing Acinetobacter baumannii K44-35 assessed as reduction in bacterial growth incubated for 48 hrs by microdilution method; format: functional
Acinetobacter baumannii [33] = assay: Antimicrobial activity against oxacillinase-23 producing Acinetobacter baumannii K47-42 assessed as reduction in bacterial growth incubated for 48 hrs by microdilution method; format: functional
Acinetobacter baumannii [34] = assay: Antimicrobial activity against oxacillinase-24 producing Acinetobacter baumannii K55-13 assessed as reduction in bacterial growth incubated for 48 hrs by microdilution method; format: functional
Acinetobacter baumannii [35] = assay: Antimicrobial activity against oxacillinase-23 producing Acinetobacter baumannii K63-58 assessed as reduction in bacterial growth incubated for 48 hrs by microdilution method; format: functional

Compound: CC(C)(C)c1ccc(CC2(Cc3ccc(C(C)(C)C)cc3)C(=O)N(CCCCNC(=N)N)C(=O)N(CCCCNC(=N)N)C2=O)cc1.O=C(O)C(F)(F)F.O=C(O)C(F)(F)F
- IC50 (HepG2): 28 mg/L
- EC50 [1]: 77 mg/L
- MIC (Pseudomonas aeruginosa [2]): 4 mg/L
- MIC (Escherichia coli [3]): 2 mg/L
- MIC [4]: < 0.13 mg/L
- MIC (Staphylococcus aureus [5]): 1 mg/L
- IC50 (MRC5): 14 mg/L
- MIC (Staphylococcus aureus [6]): 2 mg/L
- MIC (Staphylococcus aureus [7]): 2 mg/L
- MIC (Staphylococcus aureus [8]): 2 mg/L
- MIC (Staphylococcus aureus [9]): 2 mg/L
- MIC (Staphylococcus aureus [10]): 2 mg/L
- MIC (Enterococcus faecium [11]): 2 mg/L
- MIC (Enterococcus faecium [12]): 4 mg/L
- MIC (Enterococcus faecium [13]): 2 mg/L
- MIC (Enterococcus faecium [14]): 2 mg/L
- MIC (Enterococcus faecium [15]): 2 mg/L
- MIC (Escherichia coli [16]): 4 mg/L
- MIC (Escherichia coli [17]): 4 mg/L
- MIC (Escherichia coli [18]): 4 mg/L
- MIC (Escherichia coli [19]): 4 mg/L
- MIC (Escherichia coli [20]): 4 mg/L
- MIC (Pseudomonas aeruginosa [21]): 16 mg/L
- MIC (Pseudomonas aeruginosa [22]): 8 mg/L
- MIC (Pseudomonas aeruginosa [23]): 16 mg/L
- MIC (Pseudomonas aeruginosa [24]): 16 mg/L
- MIC (Pseudomonas aeruginosa [25]): 16 mg/L
- MIC [26]: 4 mg/L
- MIC [27]: 4 mg/L
- MIC [28]: 4 mg/L
- MIC [29]: 4 mg/L
- MIC [30]: 16 mg/L
- MIC (Acinetobacter baumannii [31]): 4 mg/L
- MIC (Acinetobacter baumannii [32]): 8 mg/L
- MIC (Acinetobacter baumannii [33]): 8 mg/L
- MIC (Acinetobacter baumannii [34]): 8 mg/L
- MIC (Acinetobacter baumannii [35]): 4 mg/L

Compound: N=C(N)NCCCCN1C(=O)N(CCCCNC(=N)N)C(=O)C(Cc2ccc3ccccc3c2)(Cc2ccc3ccccc3c2)C1=O.O=C(O)C(F)(F)F.O=C(O)C(F)(F)F
- IC50 (HepG2): 59 mg/L
- EC50 [1]: 133 mg/L
- MIC (Pseudomonas aeruginosa [2]): 8 mg/L
- MIC (Escherichia coli [3]): 1 mg/L
- MIC [4]: 0.25 mg/L
- MIC (Staphylococcus aureus [5]): 1 mg/L
- IC50 (MRC5): 30 mg/L
- MIC (Staphylococcus aureus [6]): 8 mg/L
- MIC (Staphylococcus aureus [7]): 8 mg/L
- MIC (Staphylococcus aureus [8]): 8 mg/L
- MIC (Staphylococcus aureus [9]): 8 mg/L
- MIC (Staphylococcus aureus [10]): 8 mg/L
- MIC (Enterococcus faecium [11]): 16 mg/L
- MIC (Enterococcus faecium [12]): 8 mg/L
- MIC (Enterococcus faecium [13]): 16 mg/L
- MIC (Enterococcus faecium [14]): 16 mg/L
- MIC (Enterococcus faecium [15]): 8 mg/L
- MIC (Escherichia coli [16]): 16 mg/L
- MIC (Escherichia coli [17]): 8 mg/L
- MIC (Escherichia coli [18]): 8 mg/L
- MIC (Escherichia coli [19]): 8 mg/L
- MIC (Escherichia coli [20]): 8 mg/L
- MIC (Pseudomonas aeruginosa [21]): 32 mg/L
- MIC (Pseudomonas aeruginosa [22]): 32 mg/L
- MIC (Pseudomonas aeruginosa [23]): 32 mg/L
- MIC (Pseudomonas aeruginosa [24]): 32 mg/L
- MIC (Pseudomonas aeruginosa [25]): 32 mg/L
- MIC [26]: 16 mg/L
- MIC [27]: 16 mg/L
- MIC [28]: 16 mg/L
- MIC [29]: 16 mg/L
- MIC [30]: 16 mg/L
- MIC (Acinetobacter baumannii [31]): 32 mg/L
- MIC (Acinetobacter baumannii [32]): 32 mg/L
- MIC (Acinetobacter baumannii [33]): 32 mg/L
- MIC (Acinetobacter baumannii [34]): 32 mg/L
- MIC (Acinetobacter baumannii [35]): 32 mg/L

Compound: N=C(N)NCCCCN1C(=O)N(CCCCNC(=N)N)C(=O)C(Cc2ccc(Br)c(Cl)c2)(Cc2ccc(Br)c(Cl)c2)C1=O.O=C(O)C(F)(F)F.O=C(O)C(F)(F)F
- IC50 (HepG2): 15 mg/L
- EC50 [1]: 77 mg/L
- MIC (Pseudomonas aeruginosa [2]): 8 mg/L
- MIC (Escherichia coli [3]): 2 mg/L
- MIC [4]: 0.25 mg/L
- MIC (Staphylococcus aureus [5]): 0.5 mg/L
- IC50 (MRC5): 36 mg/L
- MIC (Staphylococcus aureus [6]): 2 mg/L
- MIC (Staphylococcus aureus [7]): 4 mg/L
- MIC (Staphylococcus aureus [8]): 2 mg/L
- MIC (Staphylococcus aureus [9]): 2 mg/L
- MIC (Staphylococcus aureus [10]): 2 mg/L
- MIC (Enterococcus faecium [11]): 4 mg/L
- MIC (Enterococcus faecium [12]): 2 mg/L
- MIC (Enterococcus faecium [13]): 4 mg/L
- MIC (Enterococcus faecium [14]): 4 mg/L
- MIC (Enterococcus faecium [15]): 2 mg/L
- MIC (Escherichia coli [16]): 4 mg/L
- MIC (Escherichia coli [17]): 4 mg/L
- MIC (Escherichia coli [18]): 4 mg/L
- MIC (Escherichia coli [19]): 4 mg/L
- MIC (Escherichia coli [20]): 4 mg/L
- MIC (Pseudomonas aeruginosa [21]): 16 mg/L
- MIC (Pseudomonas aeruginosa [22]): 8 mg/L
- MIC (Pseudomonas aeruginosa [23]): 16 mg/L
- MIC (Pseudomonas aeruginosa [24]): 32 mg/L
- MIC (Pseudomonas aeruginosa [25]): 16 mg/L
- MIC [26]: 4 mg/L
- MIC [27]: 8 mg/L
- MIC [28]: 4 mg/L
- MIC [29]: 4 mg/L
- MIC [30]: 8 mg/L
- MIC (Acinetobacter baumannii [31]): 8 mg/L
- MIC (Acinetobacter baumannii [32]): 8 mg/L
- MIC (Acinetobacter baumannii [33]): 8 mg/L
- MIC (Acinetobacter baumannii [34]): 8 mg/L
- MIC (Acinetobacter baumannii [35]): 8 mg/L
